# Tested on: Mycobacterium tuberculosis variant bovis BCG
# Experiment: microbe, parasite or virus in culture
# Type: functional
row,Compound,MIC90
1,CC(C)c1ccc(NC(=O)c2ccc(C(=O)NC3CCCNC3)cc2)cc1 (stereo not given),6.2 µM
2,Cc1nc2c(C)cccn2c1C(=O)NCc1ccc2c(c1)OCO2,9.5 µM
3,O=C(Nc1nc(-c2ccccn2)cs1)c1ccc(-c2ccccc2F)o1,5.2 µM
4,Cl.O=C(c1ccco1)N(CCCn1ccnc1)c1nc2c(Cl)cccc2s1,7.2 µM
5,CCOc1cc(CC)c(Br)cc1C(=O)Nc1cccc2c1CCN(C)C2,4.6 µM
6,O=c1c2sc(-c3ccc(Cl)cc3)cc2ncn1-c1ccc2c(c1)OC[C@H](CN1CCCC1)O2,2.5 µM
7,O=S(=O)(CCNCC1CC1)c1cccc(Nc2ccc(-c3cccc(F)c3)cn2)c1,5.3 µM
8,COc1ccccc1-c1cc(O)c2c(C)nn(-c3ccccc3)c2n1,2.1 µM
9,FC(F)(F)c1cc(N2CCCNCC2)c2ccccc2n1,4.7 µM
10,Cc1cccc(-c2nc(Nc3ccncn3)c3c(C)csc3n2)n1,0.3 µM
11,Cc1ccc(-c2nnc(NC(=O)c3cccc(F)c3)o2)cc1C,5 µM
12,Nc1cc(OCc2ccccc2)ccc1Nc1ccccc1,2.1 µM
13,Cn1c(CNCCc2nc(C(=O)N3Cc4ccccc4C3)cs2)nc2ccccc21,8.1 µM
14,CS(=O)(=O)N1CCN(c2ccccc2NC(=O)C(Cl)(Cl)Cl)CC1,3.9 µM
15,Nc1ccccc1Nc1ccc2c(c1)OCO2,1.7 µM
16,CCc1c(C)nc(-c2cccc(F)c2)nc1N1CCNCC1,7.6 µM
17,O=C(COc1ccc(-c2ccccc2)cc1)NNC(=O)c1ccncc1,5.7 µM
18,CN1CCN(c2cc(-c3ccc(F)cc3)nc(-c3ccncc3)n2)CC1,7.9 µM
19,CCN(Cc1ccc2c(c1)OCO2)C(=O)CSc1nc(NC)c2ccccc2n1,3.3 µM
20,Cc1nn(Cc2ccccc2)c(Cl)c1C(=O)NC1CCCCCC1,3.2 µM
21,COc1ccc2sc(Nc3nc(-c4ccccn4)cs3)nc2c1,3.5 µM
22,c1ccc2c(Cc3nnc(Sc4ccnc(N5CCN(c6ccncc6)CC5)n4)n3CCN3CCOCC3)c[nH]c2c1,2.8 µM
23,Cn1cc(-c2noc(CCN[C@H]3CC[C@H](C)CC3)n2)c2ccccc21,9.4 µM
24,Cc1cccc(-c2nc(C(=O)Nc3ccnc4ncnn34)cs2)c1,5.3 µM
25,Cc1cc(C)c2cc(CN(Cc3cccnc3)C(=O)c3ccccc3)c(Cl)nc2c1,8.8 µM

row,Compound,MIC90
1,CN1CC[C@@H](Oc2cc(-c3noc(-c4ccc(Br)s4)n3)ccc2C(F)(F)F)C1,8.4 µM
2,CN(CCOc1cccc(-c2ccc(C(=O)N3CCCC3)cc2)c1)Cc1cc(-c2ccccc2)no1,3.1 µM
3,O=C(/C=C/c1ccc(C(F)(F)F)cc1F)NC1CCN(c2ncccc2C(F)(F)F)CC1,4.2 µM
4,C[C@@H]1CN(c2ccc(C#N)c(C(F)(F)F)c2)CCN1,4.2 µM
5,CCOc1ccccc1NC(=O)C(Cc1ccccc1)NC(=O)c1cccs1 (stereo not given),9 µM
6,COc1ccc(-c2cc3nccc(C4CCCNC4)n3n2)cc1 (stereo not given),6.5 µM
7,N[C@H]1CC[C@H](NCc2ccc(O)c(C(=O)NCc3ccc(Cl)c(Cl)c3)c2)CC1,8.5 µM
8,Cc1cccc(Cn2ccc(NC(=O)c3ccc4c(c3)OCO4)n2)c1,8.2 µM
9,COc1ccc(-c2nc(CCNC(=O)c3ccc(OC)cc3OC)cs2)cc1,6.4 µM
10,CC(c1nc2ccccc2s1)N(C)C(=O)c1cccc(NC(=O)c2cccs2)c1 (stereo not given),0.3 µM
11,CCc1c(C)nc(-n2nc(C)cc2NC(=O)c2cccc3ccccc23)[nH]c1=O,1.8 µM
12,Cc1cc(C)c2cc(C(=O)NC3CCCCC3)[nH]c2c1,2.8 µM
13,Cc1cc(Br)ccc1-c1ccc(CNCC(C)O)o1 (stereo not given),9.9 µM
14,Cc1ccc(S(=O)(=O)c2nc(S(=O)(=O)c3ccccc3)sc2Cl)cc1,9.6 µM
15,Nc1nc(N)c2c(Sc3ccc4ccccc4c3)cccc2n1,4.4 µM
16,Fc1cccc(Sc2nccc(N3CCNCC3)n2)c1,6 µM
17,CCOc1ccc(C=C(C(=O)NCc2ccc(F)cc2)c2nc3ccccc3[nH]2)cc1,6.1 µM
18,COc1cccc(C(=O)N(Cc2cccnc2)Cc2cc3c(C)cc(C)cc3nc2Cl)c1,3.1 µM
19,O=C(c1ccc(-c2cccc(OCCN(CCO)C3CCCCC3)c2)cc1)N1CCCC1,6.5 µM
20,Cc1cc2cc(C)c(NCCN)nc2cc1C,5.7 µM
21,O=C(Nc1nc(-c2ccccn2)cs1)c1ccc(-n2cccn2)cc1,0.7 µM
22,CCc1ccc(S(=O)(=O)Nc2cc(CN3CCN(CC4CC4)CC3)ccc2C)cc1,9.6 µM
23,COc1ccc(OC)c(S(=O)(=O)Nc2ccc(Nc3ccccc3)cc2OC)c1,8.8 µM
24,Cc1ccc(C)c(-c2nnc(NC(=O)c3ccc(Cl)s3)o2)c1,2.8 µM
25,CC(C)C(NC(=O)CCc1nc2ccccc2oc1=O)c1nc2ccccc2[nH]1 (stereo not given),4.4 µM

row,Compound,MIC90
1,O=C(NNC(=O)N1CCN(C(c2ccccc2)c2ccc(Cl)cc2)CC1)c1ccc([N+](=O)[O-])o1 (stereo not given),1.1 µM
2,Clc1cc(N2CCN(c3ccncc3)CC2)ncn1,5.1 µM
3,O=C(Nc1nc(-c2ccccn2)cs1)c1cc2c(s1)CCCC2,5.5 µM
4,Cc1c(Cl)cc(F)cc1S(=O)(=O)NCCCn1nc(Cl)c(N2CCCNCC2)cc1=O,7.9 µM
5,CC1CCC(NC(=O)Nc2ccc3snnc3c2)CC1 (stereo not given),7 µM
6,COc1cc(Cc2cnc(N)nc2N)c2cnccc2c1N(C)C,6.4 µM
7,Cc1nc2ccccc2n1CC(O)COc1ccc(NC(=O)c2ccccc2)cc1 (stereo not given),3.9 µM
8,O=C(CCc1cccs1)Nc1nc(-c2ccccn2)cs1,6.4 µM
9,CCCc1cc(-c2nc(-c3ccc4c(c3)OCO4)cs2)ccn1,6.7 µM
10,C[C@@H]1CN(c2ncnc3c2nc(C2CC2)n3C2CCNC2)C[C@H](C)O1 (stereo not given in full),7.5 µM
11,CCN(Cc1ccc(Cl)s1)C(=O)CSc1nc(NC)c2ccccc2n1,9.1 µM
12,COc1ccc(CN(C)S(=O)(=O)c2ccc(OC)c(-c3nc(C(C)C)no3)c2)cc1,7.3 µM
13,CC(=O)N1CCN(Cc2ccc(-c3ccc(NS(=O)(=O)c4ccc(C)cc4)cc3)cc2)CC1,9.7 µM
14,Cc1cc(NC(=O)COc2ccc(Cl)cc2)n(-c2nc(C)c(C)c(=O)[nH]2)n1,4.8 µM
15,CCC(Sc1nc2ccccc2o1)C(=O)Nc1nccs1 (stereo not given),5.7 µM
16,CSc1nc2ccccc2n1-c1nccc(N2CCN(CCN)CC2)n1,9.9 µM
17,COc1ccc(-c2nc(CN3CCCC3c3cccs3)cs2)cc1OC (stereo not given),1.4 µM
18,O=C(Nc1cccc2cccnc12)c1cnccn1,9.4 µM
19,C=CCNCCS(=O)(=O)c1cccc(Nc2ccc(-c3ccc(OC)nc3)cn2)c1,1.3 µM
20,CCCCOc1ccc(C(=O)Nc2nc(-c3ccccn3)cs2)cc1OCC,3.6 µM
21,CCOC(=O)c1c(-c2ccccc2)oc2ccc(O)c(CN3CCCCC3)c12,1.4 µM
22,Cc1nc2ccccn2c1C(=O)NCc1ccccc1,3.4 µM
23,Fc1cccc(-c2nc(NCC3COc4ccccc4O3)no2)c1F (stereo not given),9.2 µM
24,COc1ccc(S(=O)(=O)Nc2ccc(Nc3ccccc3)cc2OC)cc1,3 µM
25,O=C(O)C(F)(F)F.c1ccc2c(-c3ccc(CNCC4CCNC4)cc3)cncc2c1 (stereo not given),7.8 µM

row,Compound,MIC90
1,Cc1nnc(NCc2ccccc2)c2ccccc12,4.4 µM
2,CCN(CC)CCCn1c(Sc2ccnc(N3CCN(c4ccncc4)CC3)n2)nnc1-c1ccco1,2.8 µM
3,CCCc1cc(=O)[nH]c(-n2nc(C)cc2NC(=O)CC(c2ccccc2)c2ccccc2)n1,7.5 µM
4,CSc1ccccc1C(=O)Nc1nc(-c2ccccn2)cs1,3.8 µM
5,O=C(Nc1nc(-c2ccccn2)cs1)C1(c2ccc(Cl)cc2)CC1,3.3 µM
6,CCCCN1CCC(Cc2noc(-c3cc(Cl)c(N)c4c3OCCO4)n2)C1 (stereo not given),6.9 µM
7,Oc1cc(CSc2ccc(Cl)cc2)nc(-c2ccccn2)n1,5.3 µM
8,c1ccc(Nc2nc(-c3ccccn3)cs2)nc1,0.9 µM
9,O=C(Nc1nc(CN2CCCCC2)cs1)c1ccccc1OCc1ccc(F)cc1,6.2 µM
10,CCCCc1cc(OC)c(C(=O)Nc2cccc3c2CCN(C)C3)cc1Cl,6.4 µM
11,O=C(Cn1c(SCc2ccccc2F)nc2ccncc21)Nc1ccc(Br)cc1F,8.3 µM
12,O=C(Nc1ccc(C(F)(F)F)cc1)OCC1CCCN2CCCCC12 (stereo not given),6.9 µM
13,Cc1ccc(C)c2nc(N3CCN(C)CC3)c(C#N)cc12,9.4 µM
14,COc1ccc(Nc2nc(CN3CCN(Cc4cc(=O)n5ccsc5n4)CC3)cs2)cc1,6 µM
15,O=C(Nc1nnc(-c2ccc(Cl)cc2)o1)c1cccc(C(F)(F)F)c1,5.3 µM
16,c1ccc(-c2nc(N3CCCCCC3)nc(-n3ccnc3)n2)cc1,9.6 µM
17,Cc1ccc(S(=O)(=O)N2CCC(n3nnc4cc(C(F)(F)F)ccc43)CC2)cc1Cl,9.3 µM
18,Cc1nn(CC(C)C)c(Cl)c1C(=O)Nc1nc(-c2ccccn2)cs1,10 µM
19,Nn1c(=O)oc2ccc(Cl)cc2c1=O,2.8 µM
20,O=C(NC1CCN(Cc2ccsc2)C1)c1sccc1-c1cccc(F)c1 (stereo not given),7.3 µM
21,CC(C)n1cc(CN2CCCC(C(=O)c3ccc(-c4ccccc4)cc3)C2)cn1 (stereo not given),8.9 µM
22,COc1cc(Nc2ccccc2)ccc1NS(=O)(=O)c1c(C)noc1C,2.9 µM
23,Cc1cc(C(=O)Nc2nc3c(C)cccc3s2)c2c(C)nn(C(C)C)c2n1,2.5 µM
24,CC(C)Sc1ccc(C(=O)Nc2nc(-c3ccccn3)cs2)cc1,1.2 µM
25,CCC(C)CC(=O)Nc1nc2c(s1)C(=O)CC(C(=O)N(C)Cc1cccc3ncccc13)C2 (stereo not given),0.3 µM
